Assay results as given in PubChem BioAssay AID2060509 (Molecular Pharmacology Branch, DTP, NCI, 2025).
Where “and” joins values, the source holds several entries; their conditions need not be identical. Equal entries are not always repeated.

Tested on: 485176-168-R4-J1-PDC spheroids with HUVEC/MSC, viability
Experiment: Anticancer human tumor 485176-168-R4-J1-PDC patient-derived pancreatic adenocarcinoma cell line growth inhibition [GQUAD]
Conditions: for viability, T/C: stronger effect = lower value
Text: DNA G-quadruplex Stabilizer Agents in Combinations in Complex Spheroids
A high-throughput screen of multi-cell type tumor spheroids was designed to identify active combinations of DNA G-quadruplex stabilizer agents and targeted small molecules. Complex spheroids include a stromal component modeled by human endothelial cells (HUVEC) and fibroblasts modeled by human mesenchymal stem cells (MSCs). The concentration ranges selected for each drug and investigational agent were based upon clinically achievable concentrations if the clinical Cmax of the agent was known.
Compounds. The drugs and investigational agents: pidnarulex (CX-5461; NSC782164), APTO-253 (NSC789042), BRACO-19 (NSC847499), peposertib (NSC802822), ceralasertib (NSC780249), elimusertib (NSC800525), camonsertib (NSC841442), AZD-1390 (NSC803789), olaparib (NSC753686), talazoparib (NSC767125), ART-558 (NSC835418), sotorasib (NSC818433), MRTX-1133 (NSC836407), SN-38 (NSC673596), topotecan (NSC609699), etoposide (NSC141540), doxorubicin (NSC123127), gemcitabine (NSC613327), 5-fluorouracil (NSC19893), paclitaxel (NSC125973), vemurafenib (NSC761431), panobinostat (NSC761190), R-306465 (JNJ-16241199; NSC773264), adavosertib (NSC754352), TP-3654 (NSC805149), carboplatin (NSC241240), KSQ-4279 (NSC840948), and staurosporine (NSC755774) were obtained from the National Cancer Institute (NCI) Developmental Therapeutics Program Chemical Repository (34). The FDA-approved anticancer drug set is available from the NCI Developmental Therapeutics Program. […] The stock solutions were prepared in dimethyl sulfoxide (DMSO, Sigma-Aldrich, St. Louis, MO, cat. D2650) at 800-fold the tested concentration and stored at -70 degrees C prior to their use. All drugs and investigational agents were tested over a range starting from a high concentration at or near the clinical Cmax and decreasing in half-log increments. If the clinical Cmax for an agent had not been determined, the highest concentration tested was 10 microM.
2.3 Cell Culture. All cells were maintained in an incubator at 37 degrees C and 5% CO2 with 95% humidity. The PDC lines were cultured according to standard operating procedures established by the NCI PDMR. All PDCs were thawed and cultured in Matrigel-coated flasks prepared with a working solution of 1X Ham's F-12 nutrient mix, without supplementation (Invitrogen, cat. 11765054), 100 U/mL penicillin-streptomycin (Invitrogen, cat. 15140122), and 2.5% Matrigel (Corning Inc., cat. 354248) for the first three passages. The 857933-349-R-J2-PDC line was cultured in 6C/Colon 1B media, which includes advanced DMEM/F-12 (Thermo Fisher Scientific, cat. 12634028), 10 mM HEPES (Thermo Fisher Scientific, cat. 15630080), 1X GlutaMAX supplement (Thermo Fisher Scientific, cat. 35050061), 0.1 mg/mL primocin (InvivoGen, cat. ant-pm-2), 10% defined fetal bovine serum, heat inactivated (HyClone Laboratories Inc., cat. SH30070.03HI), 50% L-WRN conditioned media (ATCC, cat. CRL-3276), 1.25 mM N-Acetyl-L-cysteine (Sigma-Aldrich, cat. A9165), 10 mM nicotinamide (Sigma-Aldrich, cat. N0636), 1X B-27 supplement (Thermo Fisher Scientific, cat. 17504044), 1X N-2 supplement (Thermo Fisher Scientific, cat. 17502048), 10 microM Y-27632 dihydrochloride (Tocris Bioscience, cat. 1254), and 50 ng/mL human EGF recombinant protein (Thermo Fisher Scientific, cat. PHG0311). The 485176-168-R4-J1-PDC line was cultured in Panc media, which includes all 6C/Colon 1B media components plus 100 ng/mL human FGF-10 (Thermo Fisher Scientific, cat. 100-26), 500 nM SB-431542 (Selleckchem, cat. S1067), and gastrin (Tocris, cat. 3006).
[…]

[1] = curve of first compound, second compound 0.0316 µM
[2] = curve of first compound, second compound 0.1 µM
[3] = curve of first compound, second compound 0.316 µM
[4] = curve of first compound, second compound 1 µM
[5] = curve of first compound, second compound 3.16 µM
[6] = curve of first compound, second compound 10 µM
[7] = second compound 0.0316 µM, first compound 0.0316 µM
[8] = second compound 0.0316 µM, first compound 0.1 µM
[9] = second compound 0.0316 µM, first compound 0.316 µM
[10] = second compound 0.0316 µM, first compound 1 µM
[11] = second compound 0.0316 µM, first compound 3.16 µM
[12] = second compound 0.0316 µM, first compound 10 µM
[13] = second compound 0.1 µM, first compound 0.0316 µM
[14] = second compound 0.1 µM, first compound 0.1 µM
[15] = second compound 0.1 µM, first compound 0.316 µM
[16] = second compound 0.1 µM, first compound 1 µM
[17] = second compound 0.1 µM, first compound 3.16 µM
[18] = second compound 0.1 µM, first compound 10 µM
[19] = second compound 0.316 µM, first compound 0.0316 µM
[20] = second compound 0.316 µM, first compound 0.1 µM
[21] = second compound 0.316 µM, first compound 0.316 µM
[22] = second compound 0.316 µM, first compound 1 µM
[23] = second compound 0.316 µM, first compound 3.16 µM
[24] = second compound 0.316 µM, first compound 10 µM
[25] = second compound 1 µM, first compound 0.0316 µM
[26] = second compound 1 µM, first compound 0.1 µM
[27] = second compound 1 µM, first compound 0.316 µM
[28] = second compound 1 µM, first compound 1 µM
[29] = second compound 1 µM, first compound 3.16 µM
[30] = second compound 1 µM, first compound 10 µM
[31] = second compound 3.16 µM, first compound 0.0316 µM
[32] = second compound 3.16 µM, first compound 0.1 µM
[33] = second compound 3.16 µM, first compound 0.316 µM
[34] = second compound 3.16 µM, first compound 1 µM
[35] = second compound 3.16 µM, first compound 3.16 µM
[36] = second compound 3.16 µM, first compound 10 µM
[37] = second compound 10 µM, first compound 0.0316 µM
[38] = second compound 10 µM, first compound 0.1 µM
[39] = second compound 10 µM, first compound 0.316 µM
[40] = second compound 10 µM, first compound 1 µM
[41] = second compound 10 µM, first compound 3.16 µM
[42] = second compound 10 µM, first compound 10 µM
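Also: spheroids exposed to compounds for seven days before readout.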
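For viability, T/C in this document: percent viability relative to DMSO vehicle control wells as 100%.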

Compound: COc1ncnc(C2CC2)c1-c1ncc2cnn(Cc3ccc(-c4nc(C(F)(F)F)cn4C(C)C)cc3)c2n1 + Cc1[nH]c2ccc(F)cc2c1-c1nc2c3cccnc3c3ncccc3c2[nH]1
- IC50 [1]: > 10000 nM
- IC50 [2]: > 10000 nM
- IC50 [3]: > 10000 nM
- IC50 [4]: > 10000 nM
- IC50 [5]: > 10000 nM
- IC50 [6]: > 10000 nM
- viability, T/C [7]: 118%
- viability, T/C [8]: 81.8%
- viability, T/C [9]: 101%
- viability, T/C [10]: 105%
- viability, T/C [11]: 104%
- viability, T/C [12]: 94.2%
- viability, T/C [13]: 101%
- viability, T/C [14]: 106%
- viability, T/C [15]: 102%
- viability, T/C [16]: 102%
- viability, T/C [17]: 102%
- viability, T/C [18]: 110%
- viability, T/C [19]: 91%
- viability, T/C [20]: 85.4%
- viability, T/C [21]: 107%
- viability, T/C [22]: 92.4%
- viability, T/C [23]: 110%
- viability, T/C [24]: 110%
- viability, T/C [25]: 84.9%
- viability, T/C [26]: 106%
- viability, T/C [27]: 118%
- viability, T/C [28]: 108%
- viability, T/C [29]: 115%
- viability, T/C [30]: 97%
- viability, T/C [31]: 88.4%
- viability, T/C [32]: 90.7%
- viability, T/C [33]: 104%
- viability, T/C [34]: 93.8%
- viability, T/C [35]: 93%
- viability, T/C [36]: 80.5%
- viability, T/C [37]: 90.3%
- viability, T/C [38]: 97%
- viability, T/C [39]: 83.5%
- viability, T/C [40]: 90.9%
- viability, T/C [41]: 96.9%
- viability, T/C [42]: 84.6%

Compound: COc1ncnc(C2CC2)c1-c1ncc2cnn(Cc3ccc(-c4nc(C(F)(F)F)cn4C(C)C)cc3)c2n1
- viability, T/C (compound 0.0316 µM): 95.3% and 93.3% and 91.2%
- viability, T/C (compound 0.1 µM): 96.5% and 107% and 90.4%
- viability, T/C (compound 0.316 µM): 104% and 96.2% and 105%
- viability, T/C (compound 1 µM): 84.1% and 92.2% and 106%
- viability, T/C (compound 3.16 µM): 102% and 107% and 93.4%
- viability, T/C (compound 10 µM): 103% and 106% and 98.5%
- IC50 (curve of compound): > 10000 nM

Compound: O=c1[nH]cc(F)c(=O)[nH]1 + Cc1[nH]c2ccc(F)cc2c1-c1nc2c3cccnc3c3ncccc3c2[nH]1
- IC50 [1]: 928 nM
- IC50 [2]: 967 nM
- IC50 [3]: > 10000 nM
- IC50 [4]: 842 nM
- IC50 [5]: 2520 nM
- IC50 [6]: 807 nM
- viability, T/C [7]: 89.8%
- viability, T/C [8]: 83.4%
- viability, T/C [9]: 75.1%
- viability, T/C [10]: 46.7%
- viability, T/C [11]: 51.4%
- viability, T/C [12]: 46.6%
- viability, T/C [13]: 86.7%
- viability, T/C [14]: 96.3%
- viability, T/C [15]: 80.9%
- viability, T/C [16]: 45.9%
- viability, T/C [17]: 48.8%
- viability, T/C [18]: 52.5%
- viability, T/C [19]: 92.7%
- viability, T/C [20]: 102%
- viability, T/C [21]: 76.8%
- viability, T/C [22]: 55.5%
- viability, T/C [23]: 46.2%
- viability, T/C [24]: 54.8%
- viability, T/C [25]: 81.9%
- viability, T/C [26]: 104%
- viability, T/C [27]: 68.5%
- viability, T/C [28]: 49.8%
- viability, T/C [29]: 43.2%
- viability, T/C [30]: 47.2%
- viability, T/C [31]: 93.7%
- viability, T/C [32]: 86.5%
- viability, T/C [33]: 69.5%
- viability, T/C [34]: 65.1%
- viability, T/C [35]: 39.7%
- viability, T/C [36]: 47.2%
- viability, T/C [37]: 94.1%
- viability, T/C [38]: 80.5%
- viability, T/C [39]: 60.5%
- viability, T/C [40]: 46.8%
- viability, T/C [41]: 41.6%
- viability, T/C [42]: 48.5%

Compound: CC[C@@]1(O)C(=O)OCc2c1cc1n(c2=O)Cc2cc3c(CN(C)C)c(O)ccc3nc2-1
- viability, T/C (compound 0.000999 µM): 103% and 99% and 108%
- viability, T/C (compound 0.00316 µM): 99.1% and 96.4% and 81%
- viability, T/C (compound 0.00999 µM): 89.2% and 94.7% and 93%
- viability, T/C (compound 0.0316 µM): 64.6% and 100% and 90.4%
- viability, T/C (compound 0.0999 µM): 54.2% and 66.9% and 58.7%
- viability, T/C (compound 0.316 µM): 31.3% and 35.5% (2×)
- IC50 (curve of compound): 102 nM and 185 nM and 154 nM
